# Test results from ChEMBL document CHEMBL1201861, “Genomics of Drug Sensitity in Cancer screening data, Wellcome Trust Sanger Institute”.
# Assays:
# Assay in all cases: cells
# Settings in all cases: Homo sapiens
# CP50-MEL-B = assay type: functional, cell-based;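 further: growth inhibition of the human cell line, measured with a cell viability read-out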
# Description: SANGER: Inhibition of human CP50-MEL-B cell growth in a cell viability assay.
# Ca-Ski = assay type: functional, cell-based;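 further: cell viability assay measuring inhibition of Ca-Ski cell growth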
# Description: SANGER: Inhibition of human Ca-Ski cell growth in a cell viability assay.
# Ca9-22 = assay type: functional, cell-based;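 further: growth inhibition of Ca9-22 cells, read out with a cell viability assay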
# Description: SANGER: Inhibition of human Ca9-22 cell growth in a cell viability assay.
# DU-145 = assay type: functional, cell-based
# Description: SANGER: Inhibition of human DU-145 cell growth in a cell viability assay.
# Detroit 562 = assay type: functional, cell-based;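 further: growth inhibition of human Detroit 562 cells, read out by a cell viability assay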
# Description: SANGER: Inhibition of human Detroit562 cell growth in a cell viability assay.
# EFM-19 = assay type: functional, cell-based;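 further: growth inhibition of human EFM-19 cells, measured in a cell viability assay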
# Description: SANGER: Inhibition of human EFM-19 cell growth in a cell viability assay.
# EFO-21 = assay type: functional, cell-based;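 further: growth inhibition of EFO-21 cells measured with a viability assay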
# Description: SANGER: Inhibition of human EFO-21 cell growth in a cell viability assay.
# FTC-133 = assay type: functional, cell-based
# GP5d = assay type: functional, cell-based;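 further: growth inhibition of human GP5d cells, read out with a cell viability assay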
# Description: SANGER: Inhibition of human GP5d cell growth in a cell viability assay.
# HCC1395 = assay type: functional, cell-based;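 further: growth inhibition of HCC1395 cells, read out by a cell viability assay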
# Description: SANGER: Inhibition of human HCC1395 cell growth in a cell viability assay.
# HCC 2998 = assay type: functional, cell-based;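 further: growth inhibition of human HCC2998 cells, measured with a cell viability read-out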
# Description: SANGER: Inhibition of human HCC2998 cell growth in a cell viability assay.
# HCT-15 = assay type: functional, cell-based;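 further: cell viability readout, IC50 reflecting suppression of HCT-15 cell growth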
# Description: SANGER: Inhibition of human HCT-15 cell growth in a cell viability assay.
# HEC-1 = assay type: functional, cell-based;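 further: growth inhibition of the cell line, read out with a cell viability assay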
# Description: SANGER: Inhibition of human HEC-1 cell growth in a cell viability assay.
# HPAF-II = assay type: functional, cell-based;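 further: growth inhibition of HPAF-II cells, read out with a cell viability assay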
# Description: SANGER: Inhibition of human HPAF-II cell growth in a cell viability assay.
# HT-1080 = assay type: functional, cell-based
# Description: SANGER: Inhibition of human HT-1080 cell growth in a cell viability assay.
# HuCCT-1 = assay type: functional, cell-based, HuCCT1;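 further: growth inhibition of HuCCT-1 cells, read out by a cell viability assay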
# Description: SANGER: Inhibition of human HuCCT1 cell growth in a cell viability assay.
# IGROV-1 = assay type: functional, cell-based;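 further: reduction of IGROV-1 cell growth, read out with a viability assay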
# Description: SANGER: Inhibition of human IGROV-1 cell growth in a cell viability assay.
# KP-N-YN = assay type: functional, cell-based;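 further: growth inhibition of KP-N-YN cells, read out with a cell viability assay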
# Description: SANGER: Inhibition of human KP-N-YN cell growth in a cell viability assay.
# LU-99A = assay type: functional, cell-based;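 further: growth inhibition of LU-99A cells, read out with a cell viability assay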
# Description: SANGER: Inhibition of human LU-99A cell growth in a cell viability assay.
# MCF7 = assay type: functional, cell-based;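 further: growth inhibition of human MCF7 cells, read out with a cell viability assay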
# Description: SANGER: Inhibition of human MCF7 cell growth in a cell viability assay.
# ME-180 = assay type: functional, cell-based;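 further: cell viability assay measuring growth inhibition of ME-180 cells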
# Description: SANGER: Inhibition of human ME-180 cell growth in a cell viability assay.
# MEL-HO = assay type: functional, cell-based
# Description: SANGER: Inhibition of human MEL-HO cell growth in a cell viability assay.
# NB14 = assay type: functional, cell-based;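 further: growth inhibition of NB14 cells measured with a cell viability assay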
# Description: SANGER: Inhibition of human NB14 cell growth in a cell viability assay.
# NCI-H1573 = assay type: functional, cell-based;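 further: growth inhibition of NCI-H1573 cells, read out with a cell viability assay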
# Description: SANGER: Inhibition of human NCI-H1573 cell growth in a cell viability assay.
# NCI-H1703 = assay type: functional, cell-based;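 further: growth inhibition of NCI-H1703 cells, read out via a cell viability assay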
# Description: SANGER: Inhibition of human NCI-H1703 cell growth in a cell viability assay.
# NCI-H1792 = assay type: functional, cell-based;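 further: growth inhibition of human NCI-H1792 cells, read out as cell viability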
# Description: SANGER: Inhibition of human NCI-H1792 cell growth in a cell viability assay.
# NCI-H2122 = assay type: functional, cell-based;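 further: growth inhibition of the cells, read out with a cell viability assay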
# Description: SANGER: Inhibition of human NCI-H2122 cell growth in a cell viability assay.
# NCI-H2342 = assay type: functional, cell-based;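 further: growth inhibition of the cancer cell line, determined with a cell viability assay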
# Description: SANGER: Inhibition of human NCI-H2342 cell growth in a cell viability assay.
# NCI-H727 = assay type: functional, cell-based;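 further: growth inhibition of human NCI-H727 cells, read out with a cell viability assay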
# Description: SANGER: Inhibition of human NCI-H727 cell growth in a cell viability assay.
# OVCAR-3 = assay type: functional, cell-based;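 further: growth inhibition of human OVCAR-3 cells, determined by a cell viability assay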
# Description: SANGER: Inhibition of human OVCAR-3 cell growth in a cell viability assay.
# PANC-08-13 = assay type: functional, cell-based;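 further: cell growth inhibition, measured with a cell viability assay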
# Description: SANGER: Inhibition of human PANC-08-13 cell growth in a cell viability assay.
# RCM-1 = assay type: functional, cell-based;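 further: growth inhibition of the RCM-1 line, determined with a cell viability readout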
# Description: SANGER: Inhibition of human RCM-1 cell growth in a cell viability assay.
# SBC-5 = assay type: functional, cell-based;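 further: cell viability assay read-out, IC50 is the concentration that inhibits growth of the cells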
# Description: SANGER: Inhibition of human SBC-5 cell growth in a cell viability assay.
# SNU-423 = assay type: functional, cell-based
# Description: SANGER: Inhibition of human SNU-423 cell growth in a cell viability assay.
# SW-620 = assay type: functional, cell-based;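 further: growth inhibition of human SW-620 cells, measured by a cell viability assay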
# Description: SANGER: Inhibition of human SW620 cell growth in a cell viability assay.
# 8305C = assay type: functional, cell-based
# Description: SANGER: Inhibition of human 8305C cell growth in a cell viability assay.
# BPH-1 = assay type: functional, cell-based;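 further: cell viability assay measuring growth inhibition of human BPH-1 cells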
# Description: SANGER: Inhibition of human BPH-1 cell growth in a cell viability assay.
# BT-20 = assay type: functional, cell-based;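 further: cell viability assay measuring suppression of growth in human BT-20 cells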
# Description: SANGER: Inhibition of human BT-20 cell growth in a cell viability assay.
# CAL-120 = assay type: functional, cell-based;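 further: cell growth inhibition, read out as cell viability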
# Description: SANGER: Inhibition of human CAL-120 cell growth in a cell viability assay.
# U-251 = assay type: functional, cell-based;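 further: growth inhibition of human U-251 cells, read out through a cell viability assay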
# Description: SANGER: Inhibition of human U251 cell growth in a cell viability assay.
# YAPC = assay type: functional, cell-based;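 further: growth inhibition of YAPC cells, measured with a cell viability assay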
# Description: SANGER: Inhibition of human YAPC cell growth in a cell viability assay.
# CAPAN-1 = assay type: functional, cell-based;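 further: growth suppression of CAPAN-1 cells, read out by a cell viability assay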
# Description: SANGER: Inhibition of human CAPAN-1 cell growth in a cell viability assay.
# CHL-1 = assay type: functional, cell-based;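 further: cell growth inhibition, read out with a cell viability assay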
# Description: SANGER: Inhibition of human CHL-1 cell growth in a cell viability assay.
# CHP-212 = assay type: functional, cell-based
# Description: SANGER: Inhibition of human CHP-212 cell growth in a cell viability assay.
# COLO-680N = assay type: functional, cell-based;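 further: cell viability assay used to measure inhibition of COLO-680N cell growth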
# Description: SANGER: Inhibition of human COLO-680N cell growth in a cell viability assay.
# LB996-RCC = assay type: functional, cell-based
# Description: SANGER: Inhibition of human LB996-RCC cell growth in a cell viability assay.
# A253 cell line = assay type: functional, cell-based;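 further: growth inhibition of A253 cells, read out with a cell viability assay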
# Description: SANGER: Inhibition of human A253 cell growth in a cell viability assay.
smiles,measurement,setting,value
C[C@]1(c2nc3c(C(N)=O)cccc3[nH]2)CCCN1 [VELIPARIB],IC50,CP50-MEL-B,> 5 µM
same,IC50,Ca-Ski,> 5 µM
same,IC50,Ca9-22,> 5 µM
same,IC50,DU-145,> 5 µM
same,IC50,Detroit 562,> 5 µM
same,IC50,EFM-19,> 5 µM
same,IC50,EFO-21,> 5 µM
same,IC50,FTC-133,> 5 µM
same,IC50,GP5d,> 5 µM
same,IC50,HCC1395,> 5 µM
same,IC50,HCC 2998,> 5 µM
same,IC50,HCT-15,> 5 µM
same,IC50,HEC-1,> 5 µM
same,IC50,HPAF-II,> 5 µM
same,IC50,HT-1080,> 5 µM
same,IC50,HuCCT-1,> 5 µM
same,IC50,IGROV-1,> 5 µM
same,IC50,KP-N-YN,> 5 µM
same,IC50,LU-99A,> 5 µM
same,IC50,MCF7,> 5 µM
same,IC50,ME-180,> 5 µM
same,IC50,MEL-HO,> 5 µM
same,IC50,NB14,> 5 µM
same,IC50,NCI-H1573,> 5 µM
same,IC50,NCI-H1703,> 5 µM
same,IC50,NCI-H1792,> 5 µM
same,IC50,NCI-H2122,> 5 µM
same,IC50,NCI-H2342,> 5 µM
same,IC50,NCI-H727,> 5 µM
same,IC50,OVCAR-3,> 5 µM
same,IC50,PANC-08-13,> 5 µM
same,IC50,RCM-1,> 5 µM
same,IC50,SBC-5,> 5 µM
same,IC50,SNU-423,> 5 µM
same,IC50,SW-620,> 5 µM
same,IC50,8305C,> 5 µM
same,IC50,BPH-1,> 5 µM
same,IC50,BT-20,> 5 µM
same,IC50,CAL-120,> 5 µM
same,IC50,U-251,> 5 µM
same,IC50,YAPC,> 5 µM
same,IC50,CAPAN-1,> 5 µM
same,IC50,CHL-1,> 5 µM
same,IC50,CHP-212,> 5 µM
same,IC50,COLO-680N,> 5 µM
COc1cc(Nc2c(C#N)cnc3cc(OCCCN4CCN(C)CC4)c(OC)cc23)c(Cl)cc1Cl [BOSUTINIB],IC50,CP50-MEL-B,> 2 µM
same,IC50,Ca-Ski,> 2 µM
same,IC50,Ca9-22,1.56 µM
same,IC50,DU-145,> 2 µM
same,IC50,Detroit 562,> 2 µM
same,IC50,EFM-19,> 2 µM
same,IC50,EFO-21,> 2 µM
same,IC50,FTC-133,> 2 µM
same,IC50,GP5d,> 2 µM
same,IC50,HCC1395,> 2 µM
same,IC50,HCC 2998,> 2 µM
same,IC50,HCT-15,> 2 µM
same,IC50,HEC-1,> 2 µM
same,IC50,HPAF-II,> 2 µM
same,IC50,HT-1080,0.553 µM
same,IC50,HuCCT-1,> 2 µM
same,IC50,IGROV-1,0.488 µM
same,IC50,KP-N-YN,> 2 µM
same,IC50,LU-99A,> 2 µM
same,IC50,MCF7,> 2 µM
same,IC50,ME-180,> 2 µM
same,IC50,MEL-HO,> 2 µM
same,IC50,NB14,> 2 µM
same,IC50,NCI-H1573,> 2 µM
same,IC50,NCI-H1703,> 2 µM
same,IC50,NCI-H1792,> 2 µM
same,IC50,NCI-H2122,> 2 µM
same,IC50,NCI-H2342,> 2 µM
same,IC50,NCI-H727,> 2 µM
same,IC50,OVCAR-3,> 2 µM
same,IC50,PANC-08-13,> 2 µM
same,IC50,RCM-1,> 2 µM
same,IC50,SBC-5,> 2 µM
same,IC50,SNU-423,> 2 µM
same,IC50,SW-620,> 2 µM
same,IC50,8305C,> 2 µM
same,IC50,BPH-1,1.45 µM
same,IC50,BT-20,> 2 µM
same,IC50,CAL-120,> 2 µM
same,IC50,U-251,> 2 µM
same,IC50,YAPC,> 2 µM
same,IC50,CAPAN-1,> 2 µM
same,IC50,CHL-1,0.555 µM
same,IC50,CHP-212,> 2 µM
same,IC50,COLO-680N,> 2 µM
Cn1c(=O)n(-c2ccc(C(C)(C)C#N)cc2)c2c3cc(-c4cnc5ccccc5c4)ccc3ncc21 [DACTOLISIB],IC50,CP50-MEL-B,0.0774 µM
same,IC50,Ca-Ski,0.156 µM
same,IC50,Ca9-22,0.0336 µM
same,IC50,DU-145,> 2 µM
same,IC50,Detroit 562,0.102 µM
same,IC50,EFM-19,0.0675 µM
same,IC50,EFO-21,0.288 µM
same,IC50,FTC-133,0.0251 µM
same,IC50,GP5d,0.434 µM
same,IC50,HCC1395,0.698 µM
same,IC50,HCC 2998,0.118 µM
same,IC50,HEC-1,0.0675 µM
same,IC50,HPAF-II,0.156 µM
same,IC50,HT-1080,0.0219 µM
same,IC50,HuCCT-1,0.0908 µM
same,IC50,IGROV-1,0.136 µM
same,IC50,KP-N-YN,> 2 µM
same,IC50,LB996-RCC,0.0472 µM
same,IC50,LU-99A,0.117 µM
same,IC50,MCF7,0.0486 µM
same,IC50,ME-180,0.0224 µM
same,IC50,MEL-HO,0.024 µM
same,IC50,NB14,0.0883 µM
same,IC50,NCI-H1573,0.0875 µM
same,IC50,NCI-H1792,0.0662 µM
same,IC50,NCI-H2122,0.201 µM
same,IC50,NCI-H2342,0.59 µM
same,IC50,NCI-H727,0.412 µM
same,IC50,OVCAR-3,0.599 µM
same,IC50,PANC-08-13,0.058 µM
same,IC50,RCM-1,0.497 µM
same,IC50,SBC-5,0.0835 µM
same,IC50,SNU-423,0.068 µM
same,IC50,SW-620,0.0504 µM
same,IC50,8305C,0.0419 µM
same,IC50,A253 cell line,0.0826 µM
same,IC50,BPH-1,0.00476 µM
same,IC50,BT-20,0.112 µM
same,IC50,CAL-120,0.0347 µM
same,IC50,U-251,0.0384 µM
same,IC50,YAPC,0.491 µM
same,IC50,CAPAN-1,> 2 µM
same,IC50,CHL-1,0.0155 µM
same,IC50,CHP-212,0.0749 µM
same,IC50,COLO-680N,0.111 µM
